The record followed here is US8242128B2, “1,3-benzoxazolyl derivatives as kinase inhibitors” (Merck Patent GmbH, priority 2003, dated 2012).

For experiment [1], the target named is TIE-2 (Homo sapiens, UniProt Q02763). Description: Inhibition of TIE-2 (flashplate kinase assay, poly(Glu, Tyr) phosphorylation, 33P-ATP). The experiment is classed as biochemical. The protocol: The TIE-2 tests can be carried out, for example, analogously to the methods indicated in WO 02/44156.
The assay determines the inhibiting activity of the substances to be tested in the phosphorylation of the substrate poly(Glu, Tyr) by Tie-2 kinase in the presence of radioactive ^33P-ATP. The phosphorylated substrate binds to the surface of a “flashplate” microtitre plate during the incubation time. After removal of the reaction mixture, the microtitre plate is washed a number of times and the radioactivity on its surface is subsequently measured. An inhibiting effect of the substances to be measured results in lower radioactivity compared with an undisturbed enzymatic reaction.

Experiment [2] deals with RAF. Description: Inhibition of RAF. It is filed as biochemical.

For orientation: IC50 means the midpoint of a concentration-inhibition curve.

Chain of TIE-2 (Q02763 23-1124, species assumed): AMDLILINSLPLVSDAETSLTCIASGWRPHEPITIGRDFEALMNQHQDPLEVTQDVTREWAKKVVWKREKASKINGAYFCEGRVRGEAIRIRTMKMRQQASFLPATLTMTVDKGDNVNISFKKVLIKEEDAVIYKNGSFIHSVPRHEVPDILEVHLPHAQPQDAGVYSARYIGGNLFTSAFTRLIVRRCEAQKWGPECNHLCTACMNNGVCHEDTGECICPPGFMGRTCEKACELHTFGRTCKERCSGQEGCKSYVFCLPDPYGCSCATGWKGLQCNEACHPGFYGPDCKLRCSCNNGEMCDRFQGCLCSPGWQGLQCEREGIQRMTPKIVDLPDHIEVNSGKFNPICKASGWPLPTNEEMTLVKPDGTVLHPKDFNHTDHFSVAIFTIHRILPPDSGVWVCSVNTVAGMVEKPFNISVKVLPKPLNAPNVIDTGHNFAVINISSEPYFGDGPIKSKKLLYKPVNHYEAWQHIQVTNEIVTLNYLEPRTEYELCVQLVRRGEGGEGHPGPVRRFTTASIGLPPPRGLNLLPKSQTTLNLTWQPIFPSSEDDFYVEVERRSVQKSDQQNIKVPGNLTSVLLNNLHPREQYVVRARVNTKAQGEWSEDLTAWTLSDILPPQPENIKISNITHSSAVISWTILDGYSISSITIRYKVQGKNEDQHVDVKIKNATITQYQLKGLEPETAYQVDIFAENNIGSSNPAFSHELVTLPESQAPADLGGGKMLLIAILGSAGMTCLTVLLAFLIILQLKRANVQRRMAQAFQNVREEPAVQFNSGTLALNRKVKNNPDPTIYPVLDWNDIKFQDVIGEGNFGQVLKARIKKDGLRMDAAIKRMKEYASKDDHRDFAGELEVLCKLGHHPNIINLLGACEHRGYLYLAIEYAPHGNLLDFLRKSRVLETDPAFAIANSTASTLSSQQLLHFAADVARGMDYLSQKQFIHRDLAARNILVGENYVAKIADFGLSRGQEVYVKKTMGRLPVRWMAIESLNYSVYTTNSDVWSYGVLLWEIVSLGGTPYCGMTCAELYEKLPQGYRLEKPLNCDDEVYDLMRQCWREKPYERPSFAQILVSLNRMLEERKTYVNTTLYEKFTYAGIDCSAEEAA

Turning to `O=[N+]([O-])c1cc(Cl)cc2nc(Nc3ccc(Sc4ccncc4)cc3)oc12` [(5-Chloro-7-nitrobenzoxazol-2-yl)-[4-(pyridin-4-ylsulfanyl)phenyl]amine], the IC50 in experiment [1] was 310 nM; in experiment [2], more than 1000 nM.
